From patent US20200325140A1, “FUSED BICYCLIC COMPOUNDS FOR THE TREATMENT OF DISEASE” (Akarna Therapeutics, Ltd., priority 2016, published 2020)

Target: T1, FXR (Homo sapiens, UniProt Q96RI1)
T1 sequence (Q96RI1 1-486): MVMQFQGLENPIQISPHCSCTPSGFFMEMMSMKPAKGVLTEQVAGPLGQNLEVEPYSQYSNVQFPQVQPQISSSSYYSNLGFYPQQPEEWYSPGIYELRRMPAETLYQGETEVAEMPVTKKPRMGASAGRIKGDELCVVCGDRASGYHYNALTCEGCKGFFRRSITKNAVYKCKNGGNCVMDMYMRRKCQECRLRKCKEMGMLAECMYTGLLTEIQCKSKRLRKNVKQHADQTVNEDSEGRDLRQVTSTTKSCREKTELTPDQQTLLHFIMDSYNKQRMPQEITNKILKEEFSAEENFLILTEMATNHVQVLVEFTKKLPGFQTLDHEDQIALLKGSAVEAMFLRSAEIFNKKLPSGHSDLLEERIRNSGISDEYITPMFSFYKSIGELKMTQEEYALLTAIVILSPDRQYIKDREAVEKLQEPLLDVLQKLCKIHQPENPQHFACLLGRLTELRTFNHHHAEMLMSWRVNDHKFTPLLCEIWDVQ
Experiment: FXR Agonist Assay (Gaussia luciferase reporter in cells)
Type: cell-based
Conditions: 20 hours incubation, 10-point dilution, duplicate
Experimental: Starting from 3.33 mM of compound in DMSO solution, a 10-point 3-fold serial dilution was made by diluting 5 μL of compound into 10 μL of DMSO. The serially diluted compound was then diluted 1:33 into DMEM. This medium was then diluted ten-fold into the culture medium with the cells (10 μL/well). All concentration points are assayed in duplicate. Plates were incubated at 37° C. for 20 hours. After the incubation, 20 μL of culture medium were removed from each well and mixed with 50 μL of assay solution (Pierce™ Gaussia Luciferase Flash Assay Kit). The luminescence was measured immediately after addition of the Luc substrate with an Envision microplate reader. The raw data was uploaded to CDD and dose-response curves were generated using the Levenberg-Marquardt algorithm integrated into CDD. A negative control DMSO is included on each plate and used to normalize the data with the CDD built-in normalization function.

CC(C)OC(=O)C1=CN(C(=O)c2cc(F)c(OCCN3CCOCC3)c(F)c2)CC(C)(C)c2c(C(F)(F)F)n[nH]c21 [Compound 5, (E)-isopropyl 6-(3,5-difluoro-4-(2-morpholinoethoxy)benzoyl)-4,4-dimethyl-3-(trifluoromethyl)-1,4,5,6-tetrahydropyrazolo[3,4-d]azepine-8-carboxylate]
EC50: < 0.2 µM

CC(C)OC(=O)C1=CN(C(=O)c2ccc(OCCN3CCN(C)CC3)cc2)CC(C)(C)c2c(C(F)(F)F)n[nH]c21 [Compound 3, (E)-isopropyl 4,4-dimethyl-6-(4-(2-(4-methylpiperazin-1-yl)ethoxy)benzoyl)-3-(trifluoromethyl)-1,4,5,6-tetrahydropyrazolo[3,4-d]azepine-8-carboxylate]
EC50: 0.2 to 1 µM

CC(C)OC(=O)C1=CN(C(=O)c2ccc(OCCN(C)C)cc2)CC(C)(C)c2c(C(F)(F)F)n[nH]c21 [Compound 1, (E)-isopropyl 6-(4-(2-(dimethylamino)ethoxy)benzoyl)-4,4-dimethyl-3-(trifluoromethyl)-1,4,5,6-tetrahydropyrazolo[3,4-d]azepine-8-carboxylate]
EC50: 0.2 to 1 µM

CC(C)OC(=O)C1=CN(C(=O)c2ccc(OCCn3ccnc3)cc2)CC(C)(C)c2c(C(F)(F)F)n[nH]c21 [Compound 2, (E)-isopropyl 6-(4-(2-(1H-imidazol-1-yl)ethoxy)benzoyl)-4,4-dimethyl-3-(trifluoromethyl)-1,4,5,6-tetrahydropyrazolo[3,4-d]azepine-8-carboxylate]
EC50: < 0.2 µM

CC(C)OC(=O)C1=CN(C(=O)c2ccc(OCCN3CCCC3)cc2)CC(C)(C)c2c(C(F)(F)F)n[nH]c21 [Compound 4, (E)-isopropyl 4,4-dimethyl-6-(4-(2-(pyrrolidin-1-yl)ethoxy)benzoyl)-3-(trifluoromethyl)-1,4,5,6-tetrahydropyrazolo[3,4-d]azepine-8-carboxylate]
EC50: 1 to 10 µM
